Test results as given in article PMC3284452, “Decreased defluorination using the novel beta-cell imaging agent [^18F]FE-DTBZ-d4 in pigs examined by PET” (EJNMMI Research, 2011).
“And” between values parts separate entries of the source, which are not always exact repeats. Equal entries are not always repeated. Where two headings read alike, the source gives them in different places.

Legend:
[1] = test system: VMAT2; test: In vitro homogenate saturation binding (human endocrine and exocrine pancreatic tissue homogenates); conditions: human islet vs exocrine homogenates
Experimental: Endocrine (n = 4, 80% to 85% islets) or exocrine (n = 4) tissue preparations were isolated from human pancreata and homogenized in 50 mM tris(hydroxymethyl)aminomethane [TRIS] by a Polytron PT3000 homogenator (Kinematica AG, Littau, Switzerland). The tissue homogenates (0.5 to 6 mg/mL) were incubated in 1 mL of 50 mM TRIS with different concentrations of tracer around an expected dissociation constant Kd of 3 nM. The non-displaceable binding was determined by addition of 10 to 20 μM tetrabenazine (BIOTREND Chemikalien GmbH, Cologne, Germany).
All samples were incubated at RT for 60 min to reach an equilibrium and then moved onto a 1.2 μm Whatman filter (Brandel, Gaithersburg, MD, USA; pretreated with 0.05% polyethylenimine for > 1 h) by a C-48 cell harvester (Brandel, Gaithersburg, MD, USA). The filter components associated to each group were pooled and measured in a well counter (Uppsala Imanet AB, GE Healthcare, Uppsala, Sweden). Tissue samples and references were prepared in triplicates, and filter binding controls, in duplicates.
Tissue protein content (in milligram protein per sample) was assessed by a Bio-Rad Protein Assay (Bio-Rad, Hercules, CA, USA), and absorbance was measured with an EL808 microplate reader (BioTek, Winooski, VT, USA). The BP, defined as the ratio between the receptor density [Bmax] and dissociation constant [Kd], was determined by nonlinear regression.

[2] = PET/CT biodistribution in piglets; format: in vivo
Experimental: Male Swedish landrace piglets (n = 4, 15 to 17 kg, 11 to 14 weeks old) were anesthetized by Zoletil forte (Virbac, Carros Cedex, France). The animals were intubated and placed on a ventilator, and the anesthesia was maintained by 2.5% sevofluran. Normoglycemia was confirmed by determining blood glucose content (plasma glucose concentration 4.4 to 7.6 mM). The animal experiments were approved by the local ethics committee for animal research and performed in accordance with local institutional and Swedish national rules and regulations.
The PET/CT studies were performed using a Discovery ST scanner (General Electric, Milwaukee, WI, USA). All scans were acquired in 2D mode and reconstructed by OSEM iterative algorithm. Four piglets were administered 3.4 to 16.3 MBq/kg [^18F]FE-DTBZ-d4 as an intravenous [i.v.] bolus, and the biodistribution as well as the kinetics of the tracer in the abdomen was studied with a dynamic sequence over 90 min (the head first, prone, 4 frames × 30 s, 3 × 1 min, 5 × 3 min and 14 × 5 min). Arterial blood samples were acquired during the first 90 min, and both the plasma- and whole blood volume-corrected tracer contents were measured using the well counter. A whole-body PET/CT examination was performed 100 to 120 min post-administration.
The data in this study was compared to previously published PK/PD porcine data on non-deuterated [^18F]-FE-DTBZ. For details on the methodologies used in this study, see Eriksson et al..
PET and CT images were analyzed by PMOD (PMOD Technologies Ltd., Zürich, Switzerland). Values are given as means ± standard error of the mean [SEM] unless otherwise stated, and statistics are based on Student's t test.

[3] = Estimation of tracer defluorination by kinetic modeling of cortical bone uptake; format: in vivo, piglets; conditions: for half-life: male, Swedish landrace, pig, intravenous; for half-life / kdefluorination, average / kdefluorination: plasma; for half-life / t1/2 (defluorination) / kdefluorination, average / kdefluorination: piglets
Source text: Since the studies on [^18F]FE-DTBZ had been performed previously without metabolite correction analysis, we decided to quantify the defluorination retroactively by kinetic modeling of the cortical bone uptake. When modeling the PK/PD of a PET tracer, we generally study the relationship between three different functions (Equation 1) which we can express in a vector form; the input function [Cinput], the transfer function [HTR], and the output function [Ctissue] were defined as follows: […]
The gradual accumulation of radioactivity in the cortical bone tissue starting around 5 min after administration was assumed to consist entirely of [^18F]F^- uptake. It is difficult to delineate the cortical bone structures in the spinal column due to its relative small thickness even if isocontour thresholding is used. Partial volume effects [PVEs] will still yield kinetics containing contributions from both the cortical bone and bone marrow. […] To reduce the contribution from non-cortical sources, VOIs over the bone marrow were drawn, and the associated kinetics was subtracted from the cortical isocontour VOIs. The resulting kinetics after this operation was assessed to describe [^18F]F^- PK/PD in the cortical bone tissue and used as the output curve Ctissue for the quantification of tracer defluorination.
The Cinput of [^18F]F^- is in this specific case not created by an instantaneous bolus, but rather from a gradual reaction where [^18F]FE-DTBZ or [^18F]FE-DTBZ-d4 is the substrate and [^18F]F^- is the product. The rate of defluorination can then be expressed in a single parameter kdefluorination if we assume that the reaction is concentration-dependent and unchanging over time (or during the time frame investigated here). Cin is then uniquely determined from the arterial blood plasma curve [Cp] and kdefluorination (Equation 3): […]
The defluorination rate constant in plasma can then be determined by minimizing Equation 4: […]
All optimization was performed using MatLab 7.8.0 (MathWorks, Inc., Natick, MA, USA).

[4] = Quantification of pancreatic uptake by one-tissue compartment model; format: in vivo, piglets; conditions: pancreas; for Kp: male, Swedish landrace, pig, intravenous; for K1, average / k2, average / K1 / k2: defluorination-corrected plasma input
Source text: A one-tissue compartment model was used to estimate the compound parameter VT as well as the tissue specific rate constants K1 to k2 in the pancreas. The Cp was used as an input function, corrected for tracer metabolism by defluorination parameter kdefluorination determined from cortical bone uptake. The kinetic parameters were estimated by the PMOD modeling module PKIN.

[5] = Radiochemical stability of formulated product (analytical HPLC); format: physicochemical; conditions: for up to 5 h
Experimental: The radiochemical purity, identity, and stability of [^18F]FE-DTBZ-d4 were determined by analytical HPLC using a reverse-phase μBondapak column (C18, 3.9 Ø × 300 mm, 10 μm, Waters Corporation) with mobile phase CH3CN/10 mM H3PO4 (15:85) and a flow rate of 3 mL/min. The effluent was monitored with an UV absorbance detector (λ = 214 nm) coupled with a radioactive detector (β-flow, Beckman Coulter, Inc., Fullerton, CA, USA). The identity of [^18F]FE-DTBZ-d4 was confirmed by co-injection with the authentic nonradioactive FE-DTBZ-d4.

[6] = Experimental: Arterial blood and plasma samples were measured using the well-counter. The animals were positioned with a field of view as in the [^18F]FE-DTBZ-d4 dynamic scan.
Tissue volumes of interest [VOIs] and regions of interest [ROIs] were delineated on CT images or partially summed PET images. The kinetic uptake in the cortical bone tissue for all three tracers was assessed by generating isocontour VOIs over the lumbar vertrebral bodies in CT images.
The HTR is given in Equation 2, where φ1, φ2, θ1, and θ2 are macro-parameters determined by the rate constants K1, k2, k3, and k4 [18]. VT and VS denote the total and specific binding distribution volumes, respectively:
The [^18F]F^- HTR in the cortical bone was determined by the kinetic modeling module PKIN for PMOD.

[7] = biological target: T1, VMAT2 (Homo sapiens, UniProt Q05940); parameters: method as in PMID 20346875; conditions: human islet homogenate, described previously; cited from earlier work
T1 construct: tissue preparations were isolated from human pancreata and homogenized; from tissue; host or cells: human pancreas: endocrine (80% to 85% islets) and exocrine tissue homogenates

[8] = test system: VMAT2; parameters: method as in PMID 20346875; conditions: cited from earlier work
[9] = parameters: method as in PMID 20346875; conditions: piglet model, PET/CT 90 min after tracer administration; cited from earlier work
[10] = average, read-out: t1/2 (defluorination), average
[11] = read-out: Half-life stability against defluorination
[12] = individual experiments, [^18F]FE-DTBZ from retrospective analysis of earlier data
[13] = mean ± SEM as given in text/footnote
[14] = cortical spinal bone, average of 3 pigs
[15] = cortical spinal bone, individual pigs
[16] = cortical spinal bone, mean ± SEM as given in text

T1 sequence (Q05940 whole entry): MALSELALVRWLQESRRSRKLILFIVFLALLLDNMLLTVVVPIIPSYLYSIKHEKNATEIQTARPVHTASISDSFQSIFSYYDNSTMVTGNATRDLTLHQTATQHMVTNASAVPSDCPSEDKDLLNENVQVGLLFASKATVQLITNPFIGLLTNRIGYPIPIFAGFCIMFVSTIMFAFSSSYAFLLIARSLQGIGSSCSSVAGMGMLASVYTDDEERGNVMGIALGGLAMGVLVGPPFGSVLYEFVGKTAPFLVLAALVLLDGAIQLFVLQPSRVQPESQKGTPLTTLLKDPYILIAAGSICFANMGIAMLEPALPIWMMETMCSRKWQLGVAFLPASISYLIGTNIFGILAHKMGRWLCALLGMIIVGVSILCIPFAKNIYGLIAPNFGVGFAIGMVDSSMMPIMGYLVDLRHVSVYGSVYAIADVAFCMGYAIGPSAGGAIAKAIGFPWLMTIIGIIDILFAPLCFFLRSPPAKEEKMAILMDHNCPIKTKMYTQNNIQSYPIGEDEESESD

With COc1cc2c(cc1OCCF)CCN1C[C@@H](CC(C)C)[C@H](O)C[C@H]21 [[^18F]FE-DTBZ-d4, (2R,3R,11bR)-9-(2-fluoroethoxy)-3-isobutyl-10-methoxy-2,3,4,6,7,11b-hexahydro-1H-pyrido[2,1-a]isoquinolin-2-ol] the BPislet/BPexocrine ratio [1] was 16, the “Bile tracer and metabolites” value ([2]; i.v. bolus) was greater than 10 SUV and the “Pancreas uptake after 90 min” value ([2]; i.v. bolus, 90 min) was 1.8 SUV. The “Pancreas average peak uptake” value ([2]; i.v. bolus, shortly after administration) was 2.64 SUV, the “Spinal column vertebrae VOIs uptake” value ([2]; within the initial minutes, no further accumulation) was 1.4 SUV and the half-life [3, 10] was 7.23 h. The half-life [3, 11] was greater than 6 h, the “t1/2 (defluorination)” value ([3]; individual experiments) was 7.312 h and 27.507 h and 3.292 h and 13.13 h and the “kdefluorination, average” value ([3]; average) was 2.67e-05 s⁻¹. For the same molecule, the kdefluorination [3, 12] was 2.67e-05 s⁻¹ and 7e-06 s⁻¹ and 5.83e-05 s⁻¹ and 1.47e-05 s⁻¹, the kdefluorination [3, 13] was 2.67e-05 ± 1.2e-05 s⁻¹ and the “Increase in half-life stability” value ([3]; vs non-deuterated analogue) was “six fold increase”. For the same molecule, the Kp ([4]; average, read-out: VT, average) was 3.69, the “K1, average” value ([4]; average) was 0.81 (cc/min)/cc and the “k2, average” value ([4]; average) was 0.26 min⁻¹. For the same molecule, the K1 ([4]; individual experiments) was 0.65 (cc/min)/cc and 1.09 (cc/min)/cc and 1.13 (cc/min)/cc and 0.36 (cc/min)/cc, the k2 ([4]; individual experiments) was 0.32 min⁻¹ and 0.25 min⁻¹ and 0.37 min⁻¹ and 0.10 min⁻¹ and the “VT (total distribution volume, K1/k2)” value ([4]; individual experiments) was 2.05 cc/cc and 4.39 cc/cc and 3.06 cc/cc and 3.64 cc/cc. For the same molecule, the “Radiochemical purity of the formulated product (stability)” value [5] was greater than 98%.

For [18FH] [[^18F]F^-, Fluorine-18 fluoride], the “Plasma delay, average” value ([6]; cortical spinal bone model, average of 3 pigs) was 25.67 s, the Plasma delay ([6]; cortical spinal bone model, individual pigs) was 25.6 s and 23.5 s and 27.9 s and the “K1, average” value [6, 14] was 0.57 (cc/min)/cc. The “VS, average” value [6, 14] was 27.53 cc/cc, the “VS/VT, average” value [6, 14] was 0.99 and the “VT, average” value [6, 14] was 27.9 cc/cc. The “k2, average” value [6, 14] was 1.54 min⁻¹, the “k3, average” value [6, 14] was 0.42 min⁻¹ and the “k4, average” value [6, 14] was 0.0058 min⁻¹. For the same molecule, the K1 [6, 15] was 0.71 (cc/min)/cc and 0.44 (cc/min)/cc and 0.56 (cc/min)/cc, the “VS (specific binding distribution volume)” value [6, 15] was 35.9 cc/cc and 19.8 cc/cc and 26.9 cc/cc and the VS/VT [6, 15] was 0.99. The “VT (total distribution volume)” value [6, 15] was 36.4 cc/cc and 20.1 cc/cc and 27.2 cc/cc, the k2 [6, 15] was 1.27 min⁻¹ and 1.78 min⁻¹ and 1.57 min⁻¹ and the k3 [6, 15] was 0.39 min⁻¹ and 0.5 min⁻¹ and 0.38 min⁻¹. For the same molecule, the k4 [6, 15] was 0.0061 min⁻¹ and 0.0062 min⁻¹ and 0.0051 min⁻¹, the k3 [6, 16] was 0.42 ± 0.04 min⁻¹ and the k4 [6, 16] was 0.0058 ± 0.0004 min⁻¹. The “Signal coming from the nonspecific or free tracer” value ([6]; cortical spinal bone, model prediction) was “less than 1%”.

Molecule COc1cc2c(cc1OCC[18F])CCN1CC(CC(C)C)C(O)CC21 (centres unmarked) [[^18F]FE-DTBZ] has a half-life [3, 10] of 1.06 h, a half-life ([3]; individual experiments, read-out: t1/2 (defluorination)) of 0.77 h and a half-life [3, 11] greater than 1 h. The “t1/2 (defluorination)” value ([3]; individual experiments) was 1.46 h and 0.952 h, the “kdefluorination, average” value ([3]; average) was 0.0002 s⁻¹ and the kdefluorination [3, 12] was 0.00025 s⁻¹ and 0.000132 s⁻¹ and 0.0002023 s⁻¹. For the same molecule, the kdefluorination [3, 13] was 0.0002 ± 3.3e-05 s⁻¹, the Kp ([4]; average, read-out: VT, average) was 4.17 and the Kp ([4]; individual experiments, read-out: VT (total distribution volume, K1/k2)) was 3.39. The “K1, average” value ([4]; average) was 0.26 (cc/min)/cc, the “k2, average” value ([4]; average) was 0.064 min⁻¹ and the K1 ([4]; individual experiments) was 0.27 (cc/min)/cc and 0.30 (cc/min)/cc and 0.20 (cc/min)/cc. The k2 ([4]; individual experiments) was 0.08 min⁻¹ and 0.07 min⁻¹ and 0.04 min⁻¹, the “VT (total distribution volume, K1/k2)” value ([4]; individual experiments) was 4.47 cc/cc and 4.65 cc/cc and the BPislet [7] was 110.4 femtomoles per milligram protein per nanoMolar. The BPislet/BPexocrine ratio ([8]; from previously described BP values) was 11.2, the BPexocrine ([8]; human exocrine homogenate, described previously) was 9.8 femtomoles per milligram protein per nanoMolar and the “Spinal column uptake at the end of the experiments” value [9] was 3.1 SUV.
